Reference: patent US8269005B2 (Sunovion Pharmaceuticals Inc., priority 2007, dated 2012)

Key:
[1] = Tablet dissolution over time in media of various pH; format: physicochemical; details: for Dependence of dissolution on pH of the medium: oral dosage form, pH 1 to 6.8 and deionized water; for Fraction of tablet dissolved / Dissolution: tablet
Experimental: The dissolution media used were (a) pH 1 (0.1N HCl) 50 ml of cone HCl mixed in 6 L of water; (b) pH 4.5 acetate buffer (20 mM) […] of sodium acetate trihydrate dissolved in 6 L of water, pH adjusted to 4.5 with acetic acid; (c) pH 5.5 phosphate buffer (20 mM) 16.3 g of potassium dihydrogen phosphate in 6 L of water. pH adjusted to 5.5 with NaOH; (d) pH 6.8 phosphate buffer (20 mM) 16.3 g of potassium dihydrogen phosphate in 6 L of water. pH adjusted 6.8 with NaOH. A standard dissolution protocol was used. The standard solution (0.006 mg/mL of eszopiclone free base) was prepared by weighing a known amount (˜20 mg) of the free base into a 100 mL volumetric flask. 10 mL of acetonitrile was added into the flask and sonicated until the solids dissolved completely. The solution was cooled to room temperature and made up to the 100 mL mark using media and mixed well. Dilute 3 mL to 100 mL using media. The tables were prepared by transferring 500 mL dissolution media into the 6 vessels. Blank readings were taken for all the probes using media. Standards were read for individual vessels. Probes were washed with media and then inserted back into each vessel. One tablet was transferred into each vessel. The dissolution program was started immediately and readings were taken at 305 nm for 60 min (every 1 min for 20 min and then every 10 min).
FIG. 1 depicts dissolution profiles of the eszopiclone free base at pH 1 (0.1N HCl), pH 4.5 in buffer, pH 5.5 in buffer, pH 6.8 in buffer and in deionized water. […] It can be seen that the dissolution is greater than 50% within five minutes and greater than 80% at one hour at all pH.

[2] = Aqueous solubility (24 hour equilibrated suspension in water, HPLC); format: physicochemical; details: for pH measured at saturation: saturated suspension in water
Experimental: The aliquot was diluted and analyzed by HPLC (Waters). The data was compared to a standard curve generated from a set of solutions of known concentrations. The standard curve and the samples were analyzed using a HPLC using the following conditions: […]

SMILES | Dependence of dissolution on pH of the medium ([1]; listed as eszopiclone free base) | Fraction of tablet dissolved ([1]; deionized water, at one hour) | Dissolution ([1]; pH 1 (0.1N HCl)) | Fraction of tablet dissolved ([1]; pH 6.8 buffer, at one hour) | pH measured at saturation [2] | Solubility ([2]; water, ambient, equilibrated 24 hour) | Dependence of dissolution on pH of the medium ([1]; listed as L-malate salt) | Dissolution ([1]; at one hour, all pH (pH 1, 4.5, 5.5, 6.8, deionized water)) | Dissolution ([1]; within five minutes, all pH (pH 1, 4.5, 5.5, 6.8, deionized water))
CN1CCN(C(=O)O[C@H]2c3nccnc3C(=O)N2c2ccc(Cl)cn2)CC1 [Free base, [(9S)-8-(5-chloropyridin-2-yl)-7-oxo-2,5,8-triazabicyclo[4.3.0]nona-1,3,5-trien-9-yl]-4-methyl piperazine-1-carboxylate] | decreases markedly as the pH rises | less than one half | rapid and complete | less than one half | 7.6 | 0.2^1 mgA/mL |  |  | 
CN1CCN(C(=O)O[C@H]2c3nccnc3C(=O)N2c2ccc(Cl)cn2)CC1 [L-malate, (S)-Zopiclone L-Malate] |  |  |  |  | 3.9 |  | dissolve quickly and at substantially the same rate, regardless of the pH of the dissolving medium | greater than 80% | greater than 50%
